Test results: ChEMBL document CHEMBL1201862, “PubChem BioAssay data set” (2004)
Activity calls are given as the source filed them.

How the values were obtained:
[1] = HEp-2 cell cytotoxicity, dose response, cytotoxicity control for RSV inhibitor project, HTS (AID 2410); assay type: functional; details: human respiratory syncytial virus
[2] = target: T1, Rac GTPase-activating protein 1 (Homo sapiens, UniProt Q9H0H5); assay: MgcRacGAP GTPase-activating activity inhibitors, confirmation, biochemical, ADP Hunter fluorescence, primary and confirmatory (AID 624330); assay type: functional
T1 sequence (Q9H0H5 whole entry): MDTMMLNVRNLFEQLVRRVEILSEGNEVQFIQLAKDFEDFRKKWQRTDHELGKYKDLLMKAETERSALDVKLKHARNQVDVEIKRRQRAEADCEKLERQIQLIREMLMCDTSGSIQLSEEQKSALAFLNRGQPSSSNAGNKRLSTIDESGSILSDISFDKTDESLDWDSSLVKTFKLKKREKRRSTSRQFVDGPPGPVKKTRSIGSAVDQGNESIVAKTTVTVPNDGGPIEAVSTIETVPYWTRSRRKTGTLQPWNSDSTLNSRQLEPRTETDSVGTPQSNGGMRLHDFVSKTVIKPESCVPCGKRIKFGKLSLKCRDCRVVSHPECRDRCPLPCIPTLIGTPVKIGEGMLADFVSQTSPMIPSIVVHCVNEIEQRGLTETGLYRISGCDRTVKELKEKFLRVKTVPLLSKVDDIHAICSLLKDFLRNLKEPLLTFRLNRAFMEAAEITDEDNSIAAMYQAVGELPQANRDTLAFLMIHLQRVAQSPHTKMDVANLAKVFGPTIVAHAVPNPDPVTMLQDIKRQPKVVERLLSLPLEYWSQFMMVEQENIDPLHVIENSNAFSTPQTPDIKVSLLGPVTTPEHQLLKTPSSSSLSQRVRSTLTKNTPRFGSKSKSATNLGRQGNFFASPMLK

[3] = C. albicans growth with fluconazole, confirmation, fluorescence, retest (AID 2467); assay type: functional, cell-based
[4] = NIH-3T3 fibroblast cytotoxicity, dose response, cytotoxicity control, cell-based, fluorescence, Alamar Blue, secondary assay (AID 2327); assay type: functional;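 note: NIH-3T3 mouse fibroblasts cultured with fluconazole at 8 µg/mL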
[5] = target: T2, Corticotropin-releasing factor receptor 2/Corticotropin-releasing factor-binding protein (Homo sapiens, UniProt P24387+Q13324); assay: activators of CRF receptor 2 with binding protein – uHTS hits, confirmation (AID 602473); assay type: functional; details: read-out: EC50_Mean
T2 sequence (Q13324 whole entry): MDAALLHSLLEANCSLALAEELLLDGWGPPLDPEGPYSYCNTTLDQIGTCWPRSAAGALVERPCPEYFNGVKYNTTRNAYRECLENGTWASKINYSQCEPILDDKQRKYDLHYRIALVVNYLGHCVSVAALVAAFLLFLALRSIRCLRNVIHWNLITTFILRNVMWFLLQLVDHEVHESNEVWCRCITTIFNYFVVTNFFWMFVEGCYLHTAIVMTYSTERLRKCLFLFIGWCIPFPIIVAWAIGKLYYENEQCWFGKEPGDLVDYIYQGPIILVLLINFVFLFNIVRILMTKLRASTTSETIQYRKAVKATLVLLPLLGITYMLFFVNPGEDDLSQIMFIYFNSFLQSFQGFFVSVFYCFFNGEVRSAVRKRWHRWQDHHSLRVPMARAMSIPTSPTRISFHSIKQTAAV
T2 sequence (P24387 whole entry): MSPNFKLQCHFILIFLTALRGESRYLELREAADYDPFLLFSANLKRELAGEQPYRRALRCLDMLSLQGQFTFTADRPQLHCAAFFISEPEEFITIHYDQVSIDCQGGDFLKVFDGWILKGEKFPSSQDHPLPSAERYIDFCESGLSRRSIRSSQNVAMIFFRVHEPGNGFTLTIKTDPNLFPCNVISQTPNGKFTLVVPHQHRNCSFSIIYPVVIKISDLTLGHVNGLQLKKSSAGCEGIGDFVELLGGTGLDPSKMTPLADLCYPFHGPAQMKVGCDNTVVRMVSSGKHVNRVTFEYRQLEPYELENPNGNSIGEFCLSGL

[6] = target: T2, Corticotropin-releasing factor receptor 2/Corticotropin-releasing factor-binding protein; assay: Dose Response confirmation of uHTS hits for small molecule antagonists of the CRF-binding protein and CRF-R2 receptor complex.; assay type: functional; details: read-out: IC50_Mean
Cytochrome P450 2C19 = Cytochrome P450 2C19 (Homo sapiens, UniProt P33261); assay: Cytochrome panel assay with activity outcomes. Panel member name: p450-cyp2c19 Compounds with AC50 equal or less than 10 uM are considered active; assay type: functional; details: read-out: AC50
Cytochrome P450 2C9 = Cytochrome P450 2C9 (Homo sapiens, UniProt P11712)
Cytochrome P450 3A4 = Cytochrome P450 3A4 (Homo sapiens, UniProt P08684);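 note: CYP3A4 tested as one member of a cytochrome P450 panel screen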
Cytochrome P450 2D6 = Cytochrome P450 2D6 (Homo sapiens, UniProt P10635);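 note: CYP2D6 member of a cytochrome P450 panel assay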
Cytochrome P450 1A2 = target: T3, Cytochrome P450 1A2 (Homo sapiens, UniProt P05177);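 note: PubChem cytochrome P450 panel assay, CYP1A2 panel member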
T3 sequence (P05177 whole entry): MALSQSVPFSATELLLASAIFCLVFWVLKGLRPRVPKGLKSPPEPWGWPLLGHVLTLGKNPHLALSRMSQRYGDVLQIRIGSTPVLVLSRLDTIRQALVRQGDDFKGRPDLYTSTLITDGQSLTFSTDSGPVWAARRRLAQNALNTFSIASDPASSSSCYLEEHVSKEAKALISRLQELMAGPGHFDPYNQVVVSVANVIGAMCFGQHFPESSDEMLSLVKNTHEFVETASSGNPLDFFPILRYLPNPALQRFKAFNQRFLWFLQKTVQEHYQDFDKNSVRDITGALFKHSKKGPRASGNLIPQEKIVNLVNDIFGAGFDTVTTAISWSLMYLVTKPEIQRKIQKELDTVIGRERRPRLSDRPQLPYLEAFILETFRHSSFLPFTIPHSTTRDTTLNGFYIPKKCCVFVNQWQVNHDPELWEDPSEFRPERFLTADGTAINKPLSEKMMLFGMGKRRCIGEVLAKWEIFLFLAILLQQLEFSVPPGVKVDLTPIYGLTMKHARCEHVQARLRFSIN

H4 = assay: Luminescence Cell-Based Dose Response HTS to Identify Activators of 5'UTR Stem-Loop Driven Prion Protein mRNA Translation in H4 Neuroglioblastoma Cells. [Related pubchem assays: 1829 (Project Summary), 1814 (Primary HTS)]; assay type: functional; details: Homo sapiens
[7] = Luminescence Cell-Based Dose Response HTS to Identify Activators of Luciferase Translation or Activity in H4 […] Cells. [Related pubchem assays: 1829 (Project Summary), 1814 (Primary HTS)]; assay type: functional

Chain of Cytochrome P450 2D6 (P10635 whole entry): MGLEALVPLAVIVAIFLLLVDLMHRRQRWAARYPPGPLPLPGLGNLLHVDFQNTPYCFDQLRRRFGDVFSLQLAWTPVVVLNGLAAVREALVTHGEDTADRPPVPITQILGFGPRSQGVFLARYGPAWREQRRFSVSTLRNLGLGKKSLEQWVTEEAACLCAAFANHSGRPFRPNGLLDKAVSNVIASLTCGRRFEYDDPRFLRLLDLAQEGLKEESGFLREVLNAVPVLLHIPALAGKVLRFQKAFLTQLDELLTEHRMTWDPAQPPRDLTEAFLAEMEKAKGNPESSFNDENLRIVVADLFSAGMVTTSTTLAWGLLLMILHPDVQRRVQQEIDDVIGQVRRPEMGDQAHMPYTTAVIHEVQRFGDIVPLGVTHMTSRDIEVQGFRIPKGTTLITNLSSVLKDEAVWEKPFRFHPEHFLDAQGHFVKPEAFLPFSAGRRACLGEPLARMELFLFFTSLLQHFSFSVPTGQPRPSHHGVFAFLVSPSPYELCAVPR
Chain of Cytochrome P450 2C9 (P11712 whole entry): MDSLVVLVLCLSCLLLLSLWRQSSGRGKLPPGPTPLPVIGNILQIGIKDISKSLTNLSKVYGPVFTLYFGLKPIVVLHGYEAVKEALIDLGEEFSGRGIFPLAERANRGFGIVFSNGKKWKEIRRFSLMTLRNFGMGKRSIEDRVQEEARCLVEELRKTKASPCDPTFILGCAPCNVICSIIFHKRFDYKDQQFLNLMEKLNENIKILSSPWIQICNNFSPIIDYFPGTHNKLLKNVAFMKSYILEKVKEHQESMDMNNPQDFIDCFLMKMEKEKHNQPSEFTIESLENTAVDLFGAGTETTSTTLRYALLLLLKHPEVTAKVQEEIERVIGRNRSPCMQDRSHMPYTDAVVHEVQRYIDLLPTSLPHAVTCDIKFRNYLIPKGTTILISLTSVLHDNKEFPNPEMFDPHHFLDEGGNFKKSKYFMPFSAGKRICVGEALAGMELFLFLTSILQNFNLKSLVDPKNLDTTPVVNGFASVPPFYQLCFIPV
Chain of Cytochrome P450 3A4 (P08684 whole entry): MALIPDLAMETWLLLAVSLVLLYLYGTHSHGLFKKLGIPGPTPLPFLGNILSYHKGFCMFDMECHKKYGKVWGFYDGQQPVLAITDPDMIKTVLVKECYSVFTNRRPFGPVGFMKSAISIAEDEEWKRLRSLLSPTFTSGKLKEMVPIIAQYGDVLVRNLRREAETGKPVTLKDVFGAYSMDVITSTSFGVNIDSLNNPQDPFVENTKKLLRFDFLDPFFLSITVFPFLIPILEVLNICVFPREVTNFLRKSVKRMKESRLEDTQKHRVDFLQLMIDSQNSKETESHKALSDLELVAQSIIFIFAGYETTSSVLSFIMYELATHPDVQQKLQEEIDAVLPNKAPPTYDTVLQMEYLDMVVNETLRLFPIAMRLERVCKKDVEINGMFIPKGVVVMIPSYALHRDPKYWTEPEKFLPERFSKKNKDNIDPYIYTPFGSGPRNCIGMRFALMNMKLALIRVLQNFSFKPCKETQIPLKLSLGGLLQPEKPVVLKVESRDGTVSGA
Chain of Cytochrome P450 2C19 (P33261 whole entry): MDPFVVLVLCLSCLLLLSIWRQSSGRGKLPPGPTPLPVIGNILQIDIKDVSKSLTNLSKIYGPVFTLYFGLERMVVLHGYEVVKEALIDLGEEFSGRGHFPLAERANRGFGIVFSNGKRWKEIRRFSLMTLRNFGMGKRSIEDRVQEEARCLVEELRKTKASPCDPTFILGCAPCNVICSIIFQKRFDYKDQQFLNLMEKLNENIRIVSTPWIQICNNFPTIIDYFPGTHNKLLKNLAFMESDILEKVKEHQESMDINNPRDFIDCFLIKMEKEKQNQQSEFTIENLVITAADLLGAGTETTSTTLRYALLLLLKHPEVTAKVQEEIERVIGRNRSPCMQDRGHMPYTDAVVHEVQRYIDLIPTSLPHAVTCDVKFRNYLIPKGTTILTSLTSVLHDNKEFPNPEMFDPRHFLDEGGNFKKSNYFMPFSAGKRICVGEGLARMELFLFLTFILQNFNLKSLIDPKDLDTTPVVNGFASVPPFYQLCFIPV

CN(C(=O)c1ccc(COc2ccccc2Br)o1)c1ccccc1
CC50 [1]: 22.1 µM (active)

COc1ccc(C(=O)N/N=C/c2ccc(N3CCOCC3)s2)cc1OC
IC50 [2]: 110 µM (active)

CCc1cccc(NC(=O)c2cnn(-c3ccccc3)c2C)c1
CC50 [1]: 29.9 µM (active)

CCCCn1c(CN2CCN(C(=O)OCC)CC2)nc2c1c(=O)n(C)c(=O)n2C
EC50 [3]: > 38 µM (not active) | EC50 [4]: > 150 µM (inactive)

O=C1NC(Cc2c[nH]c3ccccc23)C(=O)N1Cc1cccc2ccccc12 (stereo not drawn)
EC50 [5]: > 53 µM (inactive) | IC50 [6]: > 47.1 µM (inactive)

COc1cc2c(c(OC)c1CC=C(C)C)C[C@H](c1ccc(O)cc1O)CO2 [GLYASPERIN D]
CC50 [1]: 15.3 µM (active)

CCOC(=O)C1CCN(CCC(=O)Nc2ccc(F)cc2)CC1
EC50 [3]: 5.18 µM (active) | EC50 [4]: > 150 µM (inactive)

C=C(CC1([C@@H](NP(=O)(c2ccccc2)c2ccccc2)[C@H]2C[C@@H]2CCN(C(=O)OCC)S(=O)(=O)c2ccc(C)cc2)CC1)c1ccccc1
AC50 (Cytochrome P450 2C19): 1.26 µM (inconclusive) | AC50 (Cytochrome P450 2C9): 5.01 µM (inconclusive)

OCCCN=C(S)Nc1ccc(Nc2ccccc2)cc1
IC50 [2]: 88 µM (active)

N#Cc1ccc(S(=O)(=O)N2CCCN(c3nc4ccc(Cl)cc4s3)CC2)cc1
CC50 [1]: > 50 µM (active)

CS(=O)(=O)Nc1cccc(-c2nccc(-n3ccnc3)n2)c1
AC50 (Cytochrome P450 2C19): 39.8 µM (inconclusive)

COc1ccccc1CNCCc1cccc(Cl)c1
IC50 [2]: 135 µM (active)

N#Cc1ccc(Oc2nc(C(N)=O)cc(-c3ccccc3)n2)cc1
AC50 (Cytochrome P450 2C19): 25.1 µM (inconclusive)

Cc1nc2ccc(NC(=O)COc3ccccc3)cc2s1
EC50 [3]: > 38 µM (not active) | EC50 [4]: > 150 µM (inactive)

COc1cc(-c2c(-c3ccsc3)sc3ccccc23)cc(OC)c1OC
CC50 [1]: 33.7 µM (active)

Cc1c(/C=C2\SC(=O)N(CC(=O)Nc3ccc4c(c3)OCO4)C2=O)c2ccccc2n1C
AC50 (Cytochrome P450 3A4): 0.2 µM (inconclusive) | AC50 (Cytochrome P450 2D6): 2.82 µM (inconclusive) | AC50 (Cytochrome P450 1A2): 3.16 µM (inconclusive)

CCCCCCCCCC(=O)NNC(=O)c1c(O)c2ccccc2n(CC)c1=O
EC50 [3]: > 38 µM (not active) | EC50 [4]: > 160 µM (inactive)

O=C1CC(c2ccccc2)CC(O)=C1/C=N/c1ccc(O)cc1 (stereo not drawn)
IC50 [2]: 26 µM (active)

C=C1C(C(=O)Nc2ccccc2)C1C(=O)Nc1ccccc1 (stereo not drawn)
EC50 [5]: > 53 µM (inactive) | IC50 [6]: > 47.1 µM (inactive)

O=C1C(Cl)=C(Sc2nnc3c4ccccc4c4ccccc4c3n2)C(=O)c2ccccc21
AC50 (Cytochrome P450 3A4): 5.01 µM (inconclusive) | AC50 (Cytochrome P450 2C9): 3.98 µM (inconclusive) | AC50 (Cytochrome P450 2D6): 3.98 µM (inconclusive)

COC(=O)c1sccc1NC(=O)c1cc(-c2ccc(C)cc2)nc2ccccc12
AC50 (Cytochrome P450 2C19): 10 µM (inconclusive) | AC50 (Cytochrome P450 1A2): 14.1 µM (inconclusive)

COc1ccc(S(=O)(=O)Nc2nc3ccccc3nc2NCC2CCCO2)cc1 (stereo not drawn)
EC50 [5]: > 53 µM (inactive) | IC50 [6]: > 47.1 µM (inactive)

COc1cc(OC)cc(C(=O)NNC(=O)Cc2ccc(OC)c(S(=O)(=O)N3CCOCC3)c2)c1
EC50 [3]: > 38 µM (not active) | EC50 [4]: > 150 µM (inconclusive)

COC(=O)c1sccc1NS(=O)(=O)c1ccccc1
EC50 [5]: > 53 µM (inactive) | IC50 [6]: > 47.1 µM (inactive)

CCOc1ccc(/C=C2\CCC(C3CCCC3)C2=O)cc1 (stereo not drawn)
EC50 (H4): > 120 µM (not active) | EC50 [7]: > 120 µM (not active)

Cc1ccccc1CN1CCN(CC(=O)NCCCN2CCN(c3ccc(F)cc3)CC2)C1=O
AC50 (Cytochrome P450 3A4): 25.1 µM (inconclusive) | AC50 (Cytochrome P450 2C19): 11.2 µM (inconclusive) | AC50 (Cytochrome P450 2C9): 12.6 µM (inconclusive)

COC(=O)CCC(=O)Nc1cccc2ccccc12
AC50 (Cytochrome P450 2C19): 20 µM (inconclusive)

CCOC(=O)N/N=C/c1ccccc1F
AC50 (Cytochrome P450 2C19): 35.5 µM (inconclusive)

CCOC(=O)c1ccc(NC(=O)c2ccc(CO)c(C(=O)NC3CCN(C(=O)OCC)CC3)c2)cc1
EC50 [3]: > 38 µM (not active) | EC50 [4]: > 160 µM (inactive)

COc1cccc(OC)c1OCCCCN1CCCC1
AC50 (Cytochrome P450 2D6): 14.1 µM (inconclusive) | AC50 (Cytochrome P450 1A2): 15.8 µM (inconclusive) | IC50 [2]: 204 µM (active)

CCc1ccc(NC(=O)C2CCN(S(=O)(=O)c3c(C)nc(O)nc3O)CC2)cc1
AC50 (Cytochrome P450 2C19): 11.2 µM (inconclusive)

CCOc1ccc(/C=N/NC(=O)C(C)N(c2ccc(OC)cc2)S(C)(=O)=O)cc1OCC (stereo not drawn)
EC50 [5]: > 53 µM (inactive) | IC50 [6]: > 47.1 µM (inactive)

O=S(=O)(Nc1ccc2c(c1)CCC2)c1cccs1
EC50 [5]: > 53 µM (inactive) | IC50 [6]: > 47.1 µM (inactive)

CCc1nnc(NC(=O)C2CCN(C(=O)NC3CCCCC3)CC2)s1
AC50 (Cytochrome P450 2C19): 0.158 µM (inconclusive) | AC50 (Cytochrome P450 2C9): 20 µM (inconclusive)

CS(=O)(=O)Nc1ccc(Nc2c3ccccc3nc3ccccc23)cc1
AC50 (Cytochrome P450 2C9): 6.31 µM (inconclusive) | AC50 (Cytochrome P450 2D6): 3.16 µM (inconclusive)

CCOC(=O)Nc1ccc(S(=O)(=O)NCc2ccccc2)cc1
AC50 (Cytochrome P450 2C19): 2.24 µM (inconclusive) | AC50 (Cytochrome P450 2C9): 5.62 µM (inconclusive) | AC50 (Cytochrome P450 2D6): 14.1 µM (inconclusive)

COc1ccccc1OCC#CCn1ccnc1
IC50 [2]: 160 µM (active)

COc1cccc(Nc2ncc3ncc(=O)n(Cc4cccs4)c3n2)c1
AC50 (Cytochrome P450 2C19): 3.98 µM (inconclusive) | AC50 (Cytochrome P450 2C9): 2.51 µM (inconclusive) | AC50 (Cytochrome P450 2D6): 3.98 µM (inconclusive)

CCOC(=O)C1CCN(c2cc3c(cc2NC(=O)c2cc(OC)ccc2Br)n(C)c(=O)n3C)CC1
EC50 [5]: > 53 µM (inactive) | IC50 [6]: > 47.1 µM (inactive)

CCOc1ccccc1NC(=O)COC(=O)C1COc2ccccc2O1 (stereo not drawn)
EC50 [5]: > 53 µM (inactive) | IC50 [6]: > 47.1 µM (inactive)

CC[C@H](NC(C)C)[C@H](O)c1ccc(O)c2[nH]c(=O)ccc12 [PROCATEROL]
AC50 (Cytochrome P450 2D6): 31.6 µM (inconclusive) | AC50 (Cytochrome P450 1A2): 39.8 µM (inconclusive)

CCNc1nc(NCC)n2c(SCc3ccc(F)cc3)nnc2n1
EC50 [5]: > 53 µM (inactive) | IC50 [6]: > 47.1 µM (inactive)

COc1cc(NC(=O)COC(=O)/C=C/c2ccc(O)c(OC)c2)cc(OC)c1
IC50 [2]: 51.7 µM (active)

c1cc(-c2sc(-c3ccncc3)c(-c3ccncc3)c2-c2ccncc2)ccn1
AC50 (Cytochrome P450 2D6): 3.16 µM (inconclusive) | AC50 (Cytochrome P450 1A2): 3.16 µM (inconclusive)
